{
  "source": "patent US20120308570A1",
  "about": "“METHODS FOR TREATING DISEASES” (priority 2009, published 2012)",
  "type_in_all_cases": "binding",
  "key": {"[1]": {"biological_target": "T1, SSB-2 SPRY domain (SSB-2ΔSB, residues 12-224) (Mus musculus, UniProt O88838)", "T1 construct": "GST (N, cleaved yes); made in house; host or cells: E. coli BL21 (DE3)", "T1 sequence (O88838 12-224)": "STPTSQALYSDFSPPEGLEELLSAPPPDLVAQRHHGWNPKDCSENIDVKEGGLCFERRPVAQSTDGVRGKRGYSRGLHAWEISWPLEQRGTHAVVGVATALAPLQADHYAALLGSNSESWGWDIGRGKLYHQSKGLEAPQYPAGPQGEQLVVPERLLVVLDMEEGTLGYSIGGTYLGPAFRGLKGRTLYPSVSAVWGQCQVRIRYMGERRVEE", "experiment": "ITC of SSB-2 SPRY domain with iNOS N-terminal peptides", "settings": "25° C., 100 mM TrisHCl, 150 mM NaCl, pH 8.0", "from_the_text": "The construct used for expression of recombinant murine SSB-2 protein included almost all the native sequence of mouse SSB-2 except for the SOCS box and the first eleven residues (residues 12-224, SWISS-PROT accession number 088838). This sequence, together with six residues at the N-terminus (GSSARQ (SEQ ID NO:38), numbered 6-11) and seven at the C-terminus (TRRIHRD (SEQ ID NO:39), numbered 225-231), both originating from the vector, gave a construct of 226 residues in total. This was expressed as a GST fusion protein in BL21 (DE3) E. coli. For ITC and co-precipitation experiments, bacteria were grown in L-broth. For NMR analysis, bacteria were grown in M9 minimal media supplemented with ^15N NH4Cl (99%, 1 g L−1). The GST fusion protein was purified from clarified cell lysates using Glutathione Sepharose 4B (Amersham Biosciences) then cleaved in situ using thrombin (Roche). […]\nTo determine whether the SSB-2-SPRY domain could interact with the sequence identified by the database searches, a series of peptides including the wild-type and various mutant sequences corresponding to amino acids 19-31 of murine iNOS, were synthesized and binding affinities for the SSB-2-SPRY domain (residues 12-224; SSB-2ΔSB) measured using isothermal titration calorimetry (ITC) (Table 2, FIG. 3)."}, "SSB-2ΔSB": {"biological_target": "T2, SSB-2ΔSB (Mus musculus, UniProt O88838)", "T2 construct": "GST (N, cleaved yes); made in house; host or cells: E. coli BL21 (DE3)", "T2 sequence (O88838 12-224)": "T1 sequence (O88838 12-224)", "experiment": "1H-15N HSQC NMR titration of iNOS peptide into 15N-labelled SSB-2ΔSB", "settings": "0.1 mM SSB-2ΔSB, ratios 1:0.5, 1:1, 1:1.5, pH 7.0, 22° C.", "description": "NMR spectra were recorded on an Avance 500 spectrometer equipped with a cryoprobe. The ^1H chemical shifts were referenced indirectly to DSS at 0 ppm via the H2O signal, and the ^13C and ^15N chemical shifts were referenced indirectly using absolute frequency ratios (Wishart et al., 1995). Spectra were processed using Topspin version 1.3 (Bruker Biospin) and analysed using XEASY, version 1.3. ^15N-labelled SSB-2ΔSB Sample for NMR analysis were prepared in H2O containing 5% ^2H2O, 10 mM sodium phosphate, 50 mM sodium chloride, 2 mM EDTA, 2 mM DTT and 0.02% (w/v) sodium azide at pH 7.0. Two-dimensional ^1H-^15N HSQC spectrum of a 0.1 mM ^15N-labelled SSB-2ΔSB sample was recorded and 22° C. using a data matrix size of 2048×256 and with 128 scans per t1 increment. The spectral widths were 13.5 ppm for ^1H and 40.0 ppm for ^15N; carrier frequencies were 4.7 ppm for ^1H and 118 ppm for ^15N. Unlabelled iNOS N-terminal peptide (wild-type) were then titrated into the ^15N-labelled SSB-2ΔSB sample, and ^1H-^15N HSQC spectra recorded at ^15N-labelled SSB-2ΔSB:iNOS peptide ratios of 1:0.5, 1:1, and 1:1.5.\nNuclear magnetic resonance (NMR) spectroscopy was then used to further analyze the SSB-2:iNOS peptide interaction. […]"}, "iNOS/SSB-2 interaction": {"biological_target": "T3, iNOS/SSB-2 interaction (Mus musculus, UniProt O88838)", "T3 construct": "cDNA clones covering the entire coding region of murine SSB-1 to −4 were isolated; expressed in transfected cells; host or cells: 293T cells (Flag-SSB-2); C57BL/6 BMDM lysate (iNOS)", "T3 sequence (O88838 1-264)": "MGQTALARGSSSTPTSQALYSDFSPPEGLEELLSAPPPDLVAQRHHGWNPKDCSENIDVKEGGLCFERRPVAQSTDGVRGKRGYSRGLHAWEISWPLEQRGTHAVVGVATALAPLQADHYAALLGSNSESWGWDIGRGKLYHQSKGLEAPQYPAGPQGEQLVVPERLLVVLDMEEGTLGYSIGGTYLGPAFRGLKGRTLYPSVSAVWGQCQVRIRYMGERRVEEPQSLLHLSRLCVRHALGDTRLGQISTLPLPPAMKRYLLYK", "experiment": "Peptide competition assay (anti-Flag immunoprecipitation, anti-iNOS Western blot)", "description": "293T cells were transfected with vector alone or a construct expressing FLAG-tagged SSB-2 and lysed as described above. iNOS peptide (SEQ ID NO:3) was added in increasing concentrations (0.001, 0.01, 0.1, 1.0 and 10 μM) to iNOS-expressing lysate generated from C57BL/6 BMDM stimulated with LPS/IFNγ. 293T lysates were then added to the macrophage/iNOS peptide lysates and incubated for 1 h at 4° C. Anti-Flag antibody coupled to Sepharose beads (M2, Sigma) was added to the lysate mix and incubated for 3 h at 4° C. Complexes were then separated by SDS-PAGE and analysed by Western blot with anti-iNOS antibodies.\nGiven that there are a number of disease states where elevated or prolonged iNOS expression might be beneficial, the present inventors were interested in whether the iNOS/SSB-2 interaction could be disrupted. As a simple proof-of-concept experiment, free iNOS peptide was used to competitively disrupt the interaction. 293T cells were transiently transfected with cDNA expressing Flag-tagged SSB-2, lysed and mixed with iNOS-expressing macrophage lysates which contained increasing amounts of free iNOS peptide."}},
  "data": [
    {"substance": "Ac-KEEKDINNNVKKT-NH2 [I, Ac-KEEKDINNNVKKT-NH2]", "values": [
      {"measurement": "Kd", "setting": "[1]", "value": 13, "unit": "nM"},
      {"measurement": "binding to SSB-2ΔSB by NMR", "setting": "SSB-2ΔSB", "value": "bound to SSB-2ΔSB"},
      {"measurement": "inhibition of SSB-2 interaction with iNOS", "setting": "iNOS/SSB-2 interaction; 100 nM iNOS peptide", "value": "modestly inhibited"},
      {"measurement": "inhibition of SSB-2 interaction with iNOS", "setting": "iNOS/SSB-2 interaction; 1000 nM peptide", "value": "completely inhibited"}
    ]}
  ]
}
